Data set [1] relates to substance P. Description: In vivo functional test, neurogenic inflammation model: antidromic stimulation of the saphenous nerve, Evans blue tissular extravasation. From the text: The test entailed creating a neurogenic inflammation by the antidromic stimulation of the saphenous nerve in the anaesthetized animal. This nerve innervates the cutaneous regions of the hind paws. The stimulation causes the release from the nerve endings of substance P, which is partially responsible for the neurogenic inflammation. The neurogenic inflammation was quantified by measuring the tissular permeability with Evans blue, a marker for the tissular extravasation of plasma albumin which occurs during inflammation. This reference model was used in the in vivo search for substance P antagonists. […] Dose Effect of Salbutamol in the Antidromic Stimulation Model Presented in Example 1

Data set [2] deals with sensitive skins. Description: Test with capsaicin: topical application of capsaicin cream, appearance of subjective signs. The data set is classed as in vivo, human. As to conditions: 0.05 ml cream with 0.075% capsaicin on approx. 4 cm^2 of skin; subjects with sensitive skins. On the procedure: In order to determine if a skin is sensitive or not, the assignee hereof has also developed a test.
The test with capsaicin entails topically applying,. to approximately 4 cm^2 of skin, 0.05 ml of a cream comprising 0.075% of capsaicin and in noting the appearance of subjective signs caused by this application, such as smarting, burning sensations and itching.

The mark [3] stands for this setting: 1 μmol, Table I, mean of 8 experiments, p < 0.001.

Where a name gives a salt, the structure may show the parent alone.

Take `CC(C)(C)NCC(O)COc1cccc2[nH]c(=O)[nH]c12` (centres unmarked) [CGP12177.HCl]: in data set [1] (setting [3]), the “% of inhibition” value amounted to 77%. The “Concentration (μg/ml of Evans blue)” value in data set [1] (1 μmol, mean of 8 experiments, expressed as Evans blue, n.d.: not detected, control 5.98 ± 0.65) came to 1.37 ± 0.32 µg/mL.

On to `CC(C)NCC(O)c1ccc(O)c(O)c1` (centres unmarked) [Isoproterenol], for which, in data set [1] (setting [3]), the “% of inhibition” value was 100%.

In the case of `CC(CCc1ccccc1)NC(C)C(O)c1ccc(O)cc1` (centres unmarked) [Nylidrin.HCl], the “% of inhibition” value in data set [1] (setting [3]) amounted to 95%.

On to `CC(C)(C)NCC(O)c1ccc(O)c(CO)c1` (centres unmarked) [Salbutamol], for which the “% of inhibition” value amounted to 100% in data set [1] (setting [3]); 17% in data set [1] (Table II, dose 0.1 nmol, n.s. (not significant)); 65% in data set [1] (Table II, dose 1 nmol, p < 0.05); 80% in data set [1] (Table II, dose 10 nmol, p < 0.01); 100% in data set [1] (Table II, dose 100 nmol, p < 0.01). In data set [1] (0.1 to 100 nmol), the “activity with respect to the release of substance P, dose dependence” value is listed as “dose dependent”. In data set [1] (antidromic stimulation model), the “activity relative to that of the reference molecule, Spantide II” value was “approximately 30 times”.

On to `COc1cc(CNC(=O)CCCC/C=C/C(C)C)ccc1O` [capsaicin], for which, in data set [2], the “erythema following subjective signs” value is recorded as “followed by the appearance of an erythema”.

As to Spantide II, the “% of inhibition” value in data set [1] (30 nmol, Table I, mean of 8 experiments, p < 0.01) is on record as 59%; in data set [1] (Table II, dose 30 nmol, p < 0.01) it was 67%.
